{
  "source": "ChEMBL document CHEMBL1151123",
  "about": "“Isolation of a New Indole Alkaloid, Pendolmycin, from Nocardiopsis” (J Nat Prod, 1988)",
  "key": {"[1]": {"molecular_target": "Epidermal growth factor receptor (Homo sapiens) (UniProt P00533)", "sequence (P00533 whole entry)": "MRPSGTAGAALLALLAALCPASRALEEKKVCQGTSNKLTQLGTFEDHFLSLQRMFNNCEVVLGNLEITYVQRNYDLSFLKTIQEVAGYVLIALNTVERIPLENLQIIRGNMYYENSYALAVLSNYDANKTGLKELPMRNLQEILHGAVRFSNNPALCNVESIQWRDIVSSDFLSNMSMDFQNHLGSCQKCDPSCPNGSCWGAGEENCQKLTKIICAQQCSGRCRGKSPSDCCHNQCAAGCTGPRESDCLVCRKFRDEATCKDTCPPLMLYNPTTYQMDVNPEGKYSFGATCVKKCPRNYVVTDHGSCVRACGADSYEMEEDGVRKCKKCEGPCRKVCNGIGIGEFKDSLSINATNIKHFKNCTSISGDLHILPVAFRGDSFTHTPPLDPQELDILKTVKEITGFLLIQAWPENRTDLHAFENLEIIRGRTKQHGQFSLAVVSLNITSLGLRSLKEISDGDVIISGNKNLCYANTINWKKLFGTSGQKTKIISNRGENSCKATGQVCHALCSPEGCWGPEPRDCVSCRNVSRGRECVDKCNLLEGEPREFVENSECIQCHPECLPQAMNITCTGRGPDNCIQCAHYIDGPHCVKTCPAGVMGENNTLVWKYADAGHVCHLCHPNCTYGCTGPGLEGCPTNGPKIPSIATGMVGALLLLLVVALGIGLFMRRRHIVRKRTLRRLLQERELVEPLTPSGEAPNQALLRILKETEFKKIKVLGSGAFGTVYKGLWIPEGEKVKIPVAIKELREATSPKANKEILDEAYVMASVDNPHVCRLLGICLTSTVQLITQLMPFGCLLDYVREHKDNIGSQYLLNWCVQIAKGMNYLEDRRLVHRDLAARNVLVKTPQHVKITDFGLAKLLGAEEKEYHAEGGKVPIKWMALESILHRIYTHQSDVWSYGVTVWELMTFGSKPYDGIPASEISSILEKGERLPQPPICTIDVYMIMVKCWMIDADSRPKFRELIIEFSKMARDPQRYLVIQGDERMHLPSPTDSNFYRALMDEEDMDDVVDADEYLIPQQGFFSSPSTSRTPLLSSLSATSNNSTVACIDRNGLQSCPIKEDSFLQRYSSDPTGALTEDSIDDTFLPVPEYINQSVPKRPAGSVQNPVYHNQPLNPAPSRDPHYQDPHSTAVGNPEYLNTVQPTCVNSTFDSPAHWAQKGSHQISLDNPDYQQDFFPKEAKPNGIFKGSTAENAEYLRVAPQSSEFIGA", "experiment": "Inhibition of EGF binding to EGFR in human A431 cells", "assay_type": "cell-based", "details": "A-431"}, "[2]": {"test_system": "Mycolicibacterium smegmatis", "experiment": "Antibacterial activity against Mycobacterium smegmatis", "assay_type": "functional"}, "Klebsiella pneumoniae": {"test_system": "Klebsiella pneumoniae", "experiment": "Antibacterial activity against Klebsiella pneumoniae", "assay_type": "functional"}, "Bacillus anthracis": {"test_system": "Bacillus anthracis", "experiment": "Antibacterial activity against Bacillus anthracis", "assay_type": "functional"}, "Staphylococcus aureus": {"test_system": "Staphylococcus aureus", "experiment": "Antibacterial activity against Staphylococcus aureus", "assay_type": "functional"}, "Corynebacterium bovis": {"test_system": "Corynebacterium bovis", "experiment": "Antibacterial activity against Corynebacterium bovis", "assay_type": "functional"}, "Micrococcus luteus": {"test_system": "Micrococcus luteus", "experiment": "Antibacterial activity against Micrococcus luteus", "assay_type": "functional"}, "Zone of skin": {"test_system": "Zone of skin", "experiment": "Toxicity in human skin assessed as erythema", "assay_type": "tissue-based"}, "Bacillus subtilis": {"test_system": "Bacillus subtilis", "experiment": "Antibacterial activity against Bacillus subtilis", "assay_type": "functional"}, "Bacillus cereus": {"test_system": "Bacillus cereus", "experiment": "Antibacterial activity against Bacillus cereus", "assay_type": "functional"}, "A-431": {"test_system": "A-431", "experiment": "Inhibition of phosphatidylinositol turnover in EGF-stimulated human A431 cells by liquid scintillation counting", "assay_type": "functional, cell-based"}},
  "note": "Activity calls are given as the source filed them. The rule behind the calls is not given here.",
  "data": [
    {"compound": "C=C[C@]1(C)CC[C@@](C)(C(C)C)c2cc3c4c(c[nH]c4c21)C[C@@H](CO)NC(=O)[C@H](C(C)C)N3C", "values": [
      {"measurement": "Activity", "setting": "[1]", "result": "inactive"}
    ]},
    {"compound": "C=CC(C)(C)c1ccc2c3c(c[nH]c13)C[C@@H](CO)NC(=O)[C@H](C(C)C)N2C", "note": "[PENDOLMYCIN]", "values": [
      {"measurement": "MIC", "setting": "[2]", "result": 50, "unit": "µg/mL"},
      {"measurement": "MIC", "setting": "Klebsiella pneumoniae", "result": 100, "unit": "µg/mL"},
      {"measurement": "MIC", "setting": "Bacillus anthracis", "result": 50, "unit": "µg/mL"},
      {"measurement": "MIC", "setting": "Staphylococcus aureus", "result": 25, "unit": "µg/mL"},
      {"measurement": "Activity", "setting": "[1]", "result": "inactive"},
      {"measurement": "MIC", "setting": "Corynebacterium bovis", "result": 50, "unit": "µg/mL"},
      {"measurement": "MIC", "setting": "Micrococcus luteus", "result": 25, "unit": "µg/mL"},
      {"measurement": "Activity", "setting": "Zone of skin", "result": "Toxic"},
      {"measurement": "MIC", "setting": "Bacillus subtilis", "result": 50, "unit": "µg/mL"},
      {"measurement": "MIC", "setting": "Bacillus cereus", "result": 50, "unit": "µg/mL"},
      {"measurement": "IC50", "setting": "A-431", "result": 0.001, "unit": "µg/mL"}
    ]}
  ]
}
